Results from patent US20040186166A1, “Cannabinoid analogs as peroxisome proliferator activated nuclear receptor gamma activators” (priority 2002, published 2004).

What was measured:
[1] = target: T1, PPARγ / GST-DRIP205 (amino acids 527-970) (Mus musculus, UniProt P37238); assay: GST pull-down assay, PPARγ with GST-DRIP205; assay type: binding; conditions: 20 μM AJA
T1 construct: made in house; host or cells: PPARγ1: reticulocyte lysate; GST-DRIP205: E. coli BL21, kept on glutathione-Sepharose beads
Experimental: The glutathione S-transferase (GST)-DRIP205 (amino acid 527-970) and GST-RAC3 RID (amino acid 613-752) fusion proteins were expressed in BL21 cells by induction with 0.1 mM isopropyl-β-D-thiogalactopyranoside (IPTG) at room temperature for 4 hours. The bacterial pellet was resuspended in STE buffer (150 mM NaCl, 10 mM Tris pH 8.0, 1 mM EDTA), containing 5 mM dithiothreitol (DTT), 1 mM phenylmethlsulfonyl fluoride (PMSF) and 1.5% Sarkosyl. The cell suspension was sonicated and centrifuged at 7400 rpm at 4° C. for 30 minutes. The supernatant was isolated and 0.02% Triton-X 100 was added, and the mixture was then incubated with 1 ml 50% slurry of glutathione-Sepharose beads on a rotator at 4° C. for 30 minutes. The beads were spun down at 3000 rpm for 10 minutes, the supernatant was removed, and the beads were suspended in 1 ml cold PBS.
Approximately 5 μg of GST-DRIP205 or GST-RAC3 bound on glutathione-Sepharose beads and 4 μl ^35S-methionine-labeled mPPARγ1 were incubated with the indicated concentrations of AJA, GW347845, or vehicle alone in H buffer (20 mM Hepes [pH 7.7], 75 mM KCl, 0.1 mM EDTA, 2.5 mM MgCl2, 0.05% NP40, 0.1 mM methionine, 1 mM DTT) containing 1 mg/ml bovine serum albumin (BSA) on a rotator at 4° C. overnight. After three washes with cold PBS, the bound protein was eluted in SDS sample buffer and boiled for 10 min before SDS-PAGE and autoradiography. […]

3T3 L1 fibroblasts = assay: Adipocyte differentiation assay, Oil Red O staining; assay type: cell-based; conditions: 20 μM AJA, 10 days, 10 μg/ml insulin
Experimental: The adipocyte differentiation assay was performed as described by Mukherjee et. al. (Mol Endocrinol 14: 1425-33, 2000). The 3T3 L1 cells (American Type Culture Collection) were cultured in DMEM media supplemented with 10% calf serum. Two days after reaching confluence, cells were treated with AJA, GW347845, or vehicle (0.1% DMSO) in the presence of 10 μg/ml insulin every other day. After 10 days of treatment with AJA or 7 days with GW347845 at confluence, cells were fixed and stained with Oil Red O (Sigma). For RT-PCR, total cellular RNAs were isolated by TRIzol (Gibco). Reverse transcriptase polymerase chain reaction (RT-PCR) was performed using the superscript first-strand synthesis kit (Invitrogen). After first-strand cDNA was synthesized by use of oligo (dT), cDNA was amplified by PCR. […]
3T3 L1 fibroblasts cells were cultured in DMEM supplemented with 10% calf serum. […] The cells were treated for 10 days with AJA, or 7 days with GW347845, and lipid accumulation in cells was assessed by Oil Red O staining.

[2] = test system: PPARγ2 and aP2 gene expression in 3T3 L1 cells; assay: RT-PCR of adipocyte-specific genes; assay type: cell-based; conditions: versus vehicle control
Experimental: The adipocyte differentiation assay was performed as described by Mukherjee et. al. (Mol Endocrinol 14: 1425-33, 2000). The 3T3 L1 cells (American Type Culture Collection) were cultured in DMEM media supplemented with 10% calf serum. Two days after reaching confluence, cells were treated with AJA, GW347845, or vehicle (0.1% DMSO) in the presence of 10 μg/ml insulin every other day. After 10 days of treatment with AJA or 7 days with GW347845 at confluence, cells were fixed and stained with Oil Red O (Sigma). For RT-PCR, total cellular RNAs were isolated by TRIzol (Gibco). Reverse transcriptase polymerase chain reaction (RT-PCR) was performed using the superscript first-strand synthesis kit (Invitrogen). After first-strand cDNA was synthesized by use of oligo (dT), cDNA was amplified by PCR. The forward primers and reverse primers used in the amplifications were 5′-GCTGTTATGGGTGAAACTCTGGGAG-3′(SEQ ID NO: 1), and 5′-CTTCATGAGGCCTGTTGTAGAGC-3′ (SEQ ID NO:2), for PPARγ2, 5′-GAGCAAATGGAGTTCCCAGATG-3′ (SEQ ID NO: 3), and 5′-GCAAACAATGGGAATAGTTCACAGTAG-3′ (SEQ ID NO: 4), for aP2, and 5′-GACCACAGTCCATGCCATCAC-3′(SEQ ID NO: 5), and 5′-CATACCAGGAAATGAGCTGAC-3′ (SEQ ID NO: 6), for GAPDH. PCR amplifications were performed in 50 μL volume with Taq DNA polymerase for 30 cycles.
To confirm that AJA and GW347845 induce 3T3 L1 cell differentiation into adipocytes, the expression levels of the adipocyte-specific genes PPARγ2 and aP2 were measured by RT-PCR. Total RNA was isolated after AJA or GW347845 treatment, and compared with vehicle control. Reverse transcription was conducted and the relative amounts of PPARγ2 and aP2 transcripts were measured by PCR reactions using primer sets specific to each gene. PCR products were analyzed on 1% agarose gel and stained with Ethidium Bromide. […] As a control for the induction specificity and the PCR amplification reaction, the expression levels of GADPH were measured in all samples, and found not affected by any treatment.

T1 sequence (P37238 31-505): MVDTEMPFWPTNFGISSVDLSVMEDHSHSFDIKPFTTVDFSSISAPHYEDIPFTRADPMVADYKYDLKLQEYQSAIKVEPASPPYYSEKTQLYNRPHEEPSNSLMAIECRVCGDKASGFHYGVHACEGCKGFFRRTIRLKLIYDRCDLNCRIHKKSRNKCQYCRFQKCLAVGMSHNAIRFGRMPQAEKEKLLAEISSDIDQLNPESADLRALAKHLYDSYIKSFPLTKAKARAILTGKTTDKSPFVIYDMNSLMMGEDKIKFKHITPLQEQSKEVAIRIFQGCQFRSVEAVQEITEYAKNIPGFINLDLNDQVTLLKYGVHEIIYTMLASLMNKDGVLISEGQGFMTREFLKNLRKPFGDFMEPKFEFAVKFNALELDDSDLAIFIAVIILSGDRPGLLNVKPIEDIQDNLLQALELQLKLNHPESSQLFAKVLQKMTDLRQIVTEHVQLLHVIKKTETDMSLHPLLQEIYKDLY
T1 sequence (Q15648 527-970 partner limits assumed): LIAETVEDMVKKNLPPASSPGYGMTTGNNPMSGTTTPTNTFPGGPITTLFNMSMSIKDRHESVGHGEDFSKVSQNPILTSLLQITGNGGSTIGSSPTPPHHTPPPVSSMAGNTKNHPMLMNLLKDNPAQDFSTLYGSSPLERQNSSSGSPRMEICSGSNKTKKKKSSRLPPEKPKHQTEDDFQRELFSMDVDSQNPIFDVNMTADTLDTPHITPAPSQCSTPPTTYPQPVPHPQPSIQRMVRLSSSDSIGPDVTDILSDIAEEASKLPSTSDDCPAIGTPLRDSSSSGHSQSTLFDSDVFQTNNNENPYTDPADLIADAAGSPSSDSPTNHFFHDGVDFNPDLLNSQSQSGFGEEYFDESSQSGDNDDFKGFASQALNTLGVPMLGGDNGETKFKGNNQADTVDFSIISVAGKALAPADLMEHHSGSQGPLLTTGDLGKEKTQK

CCCCCCC(C)(C)c1cc(O)c2c(c1)OC(C)(C)[C@@H]1CC=C(C(=O)O)C[C@@H]21 [AJA, dimethylheptyl-THC-11-oic acid]
binding of PPARγ to GST-DRIP205 [1]: increased binding
lipid accumulation, Oil Red O staining (3T3 L1 fibroblasts): dramatic increase in lipid droplet staining
PPARγ2 gene expression [2]: enhanced PPARγ2 and aP2 gene expression significantly
aP2 gene expression [2]: enhanced PPARγ2 and aP2 gene expression significantly
